In ChEMBL document CHEMBL4433226, “Unnatural Tripeptides as Potent Positive Allosteric Modulators of T1R2/T1R3” (ACS Med Chem Lett, 2019):
Active and inactive are the calls of the source. The calls are words filed in the database; no cut-off is given here.

Tests used:
T1R2/T1R3 (Homo sapiens) [1] = target: T1, T1R2/T1R3 (Homo sapiens) (UniProt Q8TE23+Q7RTX0); test: Agonist activity at human T1R2/T1R3 expressed in PEAKrapid cells assessed as effect on intracellular calcium influx measured for 120 secs by fluorescence based assay; assay type: functional, cell-based
T1R2/T1R3 (Homo sapiens) [2] = target: T1, T1R2/T1R3 (Homo sapiens); test: Positive allosteric modulator activity at human T1R2/T1R3 expressed in PEAKrapid cells assessed as potentiation of sucrose-induced intracellular calcium influx by measuring sucrose EC50 at 30 uM measured for 120 secs by fluorescence based assay relative to FEMA4774; assay type: functional, cell-based
T1R2/T1R3 (Homo sapiens) [3] = target: T1, T1R2/T1R3 (Homo sapiens); test: Positive allosteric modulator activity at human T1R2/T1R3 expressed in PEAKrapid cells assessed as potentiation of sucrose-induced intracellular calcium influx by measuring sucrose EC50 at 50 uM measured for 120 secs by fluorescence based assay relative to compound-2; assay type: functional, cell-based
Homo sapiens = species: Homo sapiens; test: Sweetness enhancing activity in trained human panelists assessed as rating of perceived sweetness intensity of depicted sucrose solutions at 10 ppm co-treated with 5% sucrose relative to original level; assay type: functional

| Compound | Activity (T1R2/T1R3 (Homo sapiens) [1]) | Efficacy (T1R2/T1R3 (Homo sapiens) [2]) [%] | Efficacy (T1R2/T1R3 (Homo sapiens) [3]) [%] | fold change (FC) (Homo sapiens) |
| --- | --- | --- | --- | --- |
| CC(C)CC(=O)NCc1ccc(-c2cncc(C(=O)O)c2N)o1 | inactive | 42 | – | – |
| Nc1c(C(=O)O)cncc1-c1ccccc1 | inactive | – | 80 | – |
| CC(C)CNC(=O)NCc1ccc(-c2cncc(C(=O)O)c2N)o1 | inactive | 48 | – | – |
| Nc1c(NC(=O)CC[C@H](Cc2ccccc2)NC(=O)[C@@H](N)C2CCCCC2)cncc1C(=O)O | inactive | 55 | – | – |
| CC(C)[C@@H](CCC(=O)Nc1cncc(C(=O)O)c1N)NC(=O)[C@@H](N)C1CCCCC1 | inactive | 45 | – | – |
| CC(C)(C)OC(=O)NCc1ccc(-c2cncc(C(=O)O)c2N)o1 | inactive | 41 | – | – |
| Nc1c(C(=O)O)cncc1-c1cccs1 | inactive | – | 85 | – |
| Nc1c(NC(=O)CCCNC(=O)[C@@H](N)C2CCCCC2)cncc1C(=O)O | inactive | 37 | – | – |
| CC(C)[C@H](N)C(=O)NCc1ccc(-c2cncc(C(=O)O)c2N)o1 | inactive | 52 | – | – |
| Cc1nc2cccc(OCC(C)(C)C(=O)NC(C)C)c2c(N)c1C(=O)O | inactive | – | – | 1.97 |
| Cc1nc2ccccc2c(N)c1C(=O)O | inactive | – | – | – |
| C[C@@H](CC(=O)Nc1cncc(C(=O)O)c1N)NC(=O)[C@@H](N)C1CCCCC1 | inactive | 44 | – | – |
| CC(=O)NCc1ccc(-c2cncc(C(=O)O)c2N)o1 | inactive | 33 | – | – |
| CC(C)CNC(=O)C(=O)NCc1ccc(-c2cncc(C(=O)O)c2N)o1 | inactive | 43 | – | – |
| CC(C)(CC(=O)Nc1cncc(C(=O)O)c1N)NC(=O)[C@@H](N)C1CCCCC1.Cl.Cl | inactive | 67 | – | 2.05 |
| CC[C@H](C)[C@@H](CCC(=O)Nc1cncc(C(=O)O)c1N)NC(=O)[C@@H](N)C1CCCCC1 | inactive | 51 | – | – |
| Nc1c(NC(=O)CCCCCCNC(=O)[C@@H](N)C2CCCCC2)cncc1C(=O)O | inactive | 36 | – | – |
| Cl.Cl.Nc1c(NC(=O)CCCCNC(=O)[C@@H](N)C2CCCCC2)cncc1C(=O)O | inactive | 45 | – | 1.96 |
| CC[C@H](C)[C@H](N)C(=O)NCc1ccc(-c2cncc(C(=O)O)c2N)o1 | inactive | 55 | – | – |
| Nc1c(C(=O)O)cncc1-c1ccco1 | inactive | – | 83 | – |
| CC(C)C(=O)NCc1ccc(-c2cncc(C(=O)O)c2N)o1 | inactive | 37 | – | – |
| Cl.Cl.Nc1c(C(=O)O)cncc1-c1ccc(CNC(=O)[C@@H](N)C2CCCCC2)o1 | inactive | 72 | – | 1.77 |
| CC(C)[C@@H](CC(=O)Nc1cncc(C(=O)O)c1N)NC(=O)[C@@H](N)C1CCCCC1 | inactive | 35 | – | – |
| CC(C)C[C@H](N)C(=O)NCc1ccc(-c2cncc(C(=O)O)c2N)o1 | inactive | 61 | – | – |
| CC(C)C[C@@H](CC(=O)Nc1cncc(C(=O)O)c1N)NC(=O)[C@@H](N)C1CCCCC1 | inactive | 38 | – | – |
